The source of these data is patent publication US20150366847A1, “COMBINATION OF GERANYLGERANYLACETONE AND IBUDILAST AND METHODS OF USING SAME” (MediciNova, Inc., priority 2014, published 2015).

Assay [1] concerns heat shock protein 70 (HSP70). To be noted: mice subjected to an occlusion of the middle cerebral artery; cited from earlier work.
Assay [2] has as its system animal model for Parkinson's disease. Nature of the assay: Rat model of Parkinson's disease, brain mass. Type of assay: in vivo.
The next assay deals with animal model for ALS. Put plainly: Rat model of ALS, brain mass. Type of assay: in vivo.

As for `CC(=O)CCC=C(C)CC/C=C(\C)CC/C=C(\C)CCC=C(C)C` (mixture of isomers) [GGA, Geranylgeranyl acetone], the “induction of heat shock protein 70 (HSP70)” value in assay [1] is on record as “inducer of heat shock protein 70 (HSP70)”. For `CC(C)C(=O)c1c(C(C)C)nn2ccccc12` [ibudilast, 3-isobutyryl-2-isopropylpyrazolo[1,5-a]pyridine], the brain mass result (in assay [2]; with animal model for ALS) was “increase brain mass” in each case.
